Measurements taken from publication PMC7176092, “Development of the first in vivo GPR17 ligand through an iterative drug discovery pipeline: A novel disease-modifying strategy for multiple sclerosis” (PLoS ONE, 2020).
Marks after values point to notes of the source that are not given here.

Key:
human GPR17 = target: T1, human GPR17 (Homo sapiens, UniProt Q13304); assay: [35S]GTPγS binding assay; format: biochemical; details: for EC50: membranes of 1321N1 cells transfected with human GPR17, mean ± SEM of 3 experiments
T1 construct: HA; expressed in transfected cells
T1 sequence (Q13304 29-367): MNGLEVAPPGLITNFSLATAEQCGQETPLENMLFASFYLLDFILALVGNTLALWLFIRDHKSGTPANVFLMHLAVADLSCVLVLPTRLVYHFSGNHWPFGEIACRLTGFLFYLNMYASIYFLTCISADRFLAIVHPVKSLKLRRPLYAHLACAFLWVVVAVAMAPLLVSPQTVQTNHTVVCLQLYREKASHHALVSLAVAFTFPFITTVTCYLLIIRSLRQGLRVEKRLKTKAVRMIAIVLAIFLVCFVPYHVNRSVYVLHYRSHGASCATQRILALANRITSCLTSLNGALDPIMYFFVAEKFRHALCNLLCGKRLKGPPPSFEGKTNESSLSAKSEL
Experimental: [^35S]GTPγS binding assays were carried out as previously described. Briefly, control and astrocytoma 1321N1 cells stably transfected with human pcDNA3.1 (control cells) and human HA-tag GPR17 were homogenized in 5 mM Tris/HCl and 2 mM EDTA (pH 7.4) and centrifuged at 48,000g for 15 min at 4°C. The resulting pellets were washed in 50 mM Tris/HCl and 10 mM MgCl2 (pH 7.4). After protein dosage, aliquots of cell membranes were incubated with increasing concentrations of each investigated ligand (1 pM–10 μM) and GTPγS binding to activated G-proteins was quantified as previously described. Compounds were purchased from two external providers, i.e., Ambinter (Ambinter c/o Greenpharma, Orléans, France http://www.ambinter.com/) and Asinex (http://www.asinex.com/).
For analysis and graphic presentation of [^35S]GTPγS binding data, a nonlinear multipurpose curve fitting computer program (Graph-Pad Prism) was used. All data are presented as the mean ± SEM of three different experiments.
The selected 15 molecules were evaluated in our in-house [^35S]GTPγS functional assay in membranes from cells transfected with human GPR17. […] Moreover, this assay has been already successfully used in the past to measure the ability of both endogenous and novel synthetic compounds to activate GPR17 [25, 31]. All tested molecules were able to potently activate GPR17 with nanomolar/sub-nanomolar affinities. Concentration-response curves obtained for each selected compound are reported in S4 Fig.

P2Y = assay: Binding assay P2Y; design: species or system human; details: reference compound
CXCR2 = target: T2, CXCR2 (Homo sapiens, UniProt P25025); assay: Binding assay CXCR2; details: reference compound
T2 construct: Eurofins Cerep (external service)
T2 sequence (P25025 1-360): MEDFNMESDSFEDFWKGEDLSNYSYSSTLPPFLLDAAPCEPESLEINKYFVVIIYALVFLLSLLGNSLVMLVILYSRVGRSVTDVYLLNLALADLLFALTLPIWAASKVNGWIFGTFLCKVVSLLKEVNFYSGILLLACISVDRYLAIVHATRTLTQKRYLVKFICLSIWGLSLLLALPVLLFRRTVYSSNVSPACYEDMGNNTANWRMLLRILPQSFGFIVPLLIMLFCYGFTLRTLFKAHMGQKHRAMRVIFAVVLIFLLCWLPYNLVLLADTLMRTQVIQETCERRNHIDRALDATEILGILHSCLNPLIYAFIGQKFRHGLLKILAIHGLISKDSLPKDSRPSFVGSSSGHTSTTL

mGluR5 = target: T3, mGluR5 (Homo sapiens, UniProt P41594); assay: Binding assay mGluR5; details: reference compound
T3 construct: Eurofins Cerep (external service)
T3 sequence (P41594 21-1212): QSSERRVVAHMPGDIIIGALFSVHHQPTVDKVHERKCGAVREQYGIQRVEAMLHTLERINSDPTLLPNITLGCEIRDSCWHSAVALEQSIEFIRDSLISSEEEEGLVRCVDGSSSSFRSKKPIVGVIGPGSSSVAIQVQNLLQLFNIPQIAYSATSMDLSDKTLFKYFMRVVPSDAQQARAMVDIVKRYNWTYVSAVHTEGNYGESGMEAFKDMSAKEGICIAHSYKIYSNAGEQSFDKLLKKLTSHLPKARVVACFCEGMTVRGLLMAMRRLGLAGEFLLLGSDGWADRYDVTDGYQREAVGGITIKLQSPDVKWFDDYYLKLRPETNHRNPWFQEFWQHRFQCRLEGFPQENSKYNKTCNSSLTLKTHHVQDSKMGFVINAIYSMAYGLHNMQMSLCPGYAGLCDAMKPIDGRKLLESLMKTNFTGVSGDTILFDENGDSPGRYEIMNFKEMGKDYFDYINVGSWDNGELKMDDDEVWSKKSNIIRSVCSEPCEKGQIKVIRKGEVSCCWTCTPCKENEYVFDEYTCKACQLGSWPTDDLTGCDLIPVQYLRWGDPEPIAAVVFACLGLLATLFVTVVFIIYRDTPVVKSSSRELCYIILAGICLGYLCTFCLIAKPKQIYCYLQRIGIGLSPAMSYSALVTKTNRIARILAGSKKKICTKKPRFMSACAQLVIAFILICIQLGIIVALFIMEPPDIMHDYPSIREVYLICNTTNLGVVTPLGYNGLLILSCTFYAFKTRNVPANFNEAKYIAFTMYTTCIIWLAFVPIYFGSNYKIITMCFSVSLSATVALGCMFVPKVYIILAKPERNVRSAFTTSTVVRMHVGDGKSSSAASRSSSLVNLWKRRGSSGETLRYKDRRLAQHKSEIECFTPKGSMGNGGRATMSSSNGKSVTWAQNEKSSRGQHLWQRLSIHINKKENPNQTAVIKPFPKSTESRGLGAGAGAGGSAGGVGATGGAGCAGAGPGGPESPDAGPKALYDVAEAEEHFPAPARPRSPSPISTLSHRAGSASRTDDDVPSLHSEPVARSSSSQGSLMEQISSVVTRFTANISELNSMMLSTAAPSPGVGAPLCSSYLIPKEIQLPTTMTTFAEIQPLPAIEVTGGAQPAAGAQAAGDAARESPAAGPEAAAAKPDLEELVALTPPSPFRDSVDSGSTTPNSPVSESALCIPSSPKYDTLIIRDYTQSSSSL

M5 = target: T4, M5 (Homo sapiens, UniProt P08912); assay: Binding assay M5; details: reference compound
T4 construct: Eurofins Cerep (external service)
T4 sequence (P08912 1-532): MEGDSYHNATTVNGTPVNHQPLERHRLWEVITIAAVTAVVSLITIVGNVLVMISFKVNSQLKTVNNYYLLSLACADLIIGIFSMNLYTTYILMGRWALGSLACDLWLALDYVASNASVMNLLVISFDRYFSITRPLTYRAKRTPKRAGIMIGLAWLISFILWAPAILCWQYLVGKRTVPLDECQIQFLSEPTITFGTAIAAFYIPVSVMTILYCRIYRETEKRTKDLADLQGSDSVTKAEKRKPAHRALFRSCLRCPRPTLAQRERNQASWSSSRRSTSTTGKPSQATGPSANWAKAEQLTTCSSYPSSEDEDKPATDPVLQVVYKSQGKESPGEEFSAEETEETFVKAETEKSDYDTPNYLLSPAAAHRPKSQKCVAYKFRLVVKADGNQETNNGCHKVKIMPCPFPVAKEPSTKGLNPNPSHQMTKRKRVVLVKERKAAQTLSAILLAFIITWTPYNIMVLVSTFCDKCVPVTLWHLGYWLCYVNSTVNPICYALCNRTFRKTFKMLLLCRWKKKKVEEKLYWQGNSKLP

CCR3 = target: T5, CCR3 (Homo sapiens, UniProt P51677); assay: Cellular functional assay CCR3
T5 sequence (P51677 1-355): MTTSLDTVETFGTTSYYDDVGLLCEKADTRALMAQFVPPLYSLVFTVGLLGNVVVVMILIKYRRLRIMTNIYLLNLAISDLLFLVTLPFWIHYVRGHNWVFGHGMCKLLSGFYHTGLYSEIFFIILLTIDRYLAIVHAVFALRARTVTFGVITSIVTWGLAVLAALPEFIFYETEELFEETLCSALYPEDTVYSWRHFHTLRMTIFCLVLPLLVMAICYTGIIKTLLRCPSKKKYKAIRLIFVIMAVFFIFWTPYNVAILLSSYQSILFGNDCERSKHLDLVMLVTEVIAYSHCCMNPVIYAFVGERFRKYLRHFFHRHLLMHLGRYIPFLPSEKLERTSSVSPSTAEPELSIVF

CXCR1 = target: T6, CXCR1 (Homo sapiens, UniProt P25024); assay: Cellular functional assay CXCR1; details: reference agonist
T6 sequence (P25024 1-350): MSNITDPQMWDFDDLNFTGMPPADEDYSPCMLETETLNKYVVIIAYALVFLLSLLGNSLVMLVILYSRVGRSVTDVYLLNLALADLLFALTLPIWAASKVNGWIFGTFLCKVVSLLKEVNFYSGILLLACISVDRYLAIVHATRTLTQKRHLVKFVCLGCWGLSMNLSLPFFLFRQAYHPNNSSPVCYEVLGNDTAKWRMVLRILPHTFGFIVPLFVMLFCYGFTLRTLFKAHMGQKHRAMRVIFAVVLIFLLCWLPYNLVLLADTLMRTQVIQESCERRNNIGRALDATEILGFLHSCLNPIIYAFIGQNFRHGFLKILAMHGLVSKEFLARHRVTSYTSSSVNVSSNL

CCR2 = target: T7, CCR2 (Homo sapiens, UniProt P41597); assay: Binding assay CCR2; details: reference compound
T7 construct: Eurofins Cerep (external service)
T7 sequence (P41597 whole entry): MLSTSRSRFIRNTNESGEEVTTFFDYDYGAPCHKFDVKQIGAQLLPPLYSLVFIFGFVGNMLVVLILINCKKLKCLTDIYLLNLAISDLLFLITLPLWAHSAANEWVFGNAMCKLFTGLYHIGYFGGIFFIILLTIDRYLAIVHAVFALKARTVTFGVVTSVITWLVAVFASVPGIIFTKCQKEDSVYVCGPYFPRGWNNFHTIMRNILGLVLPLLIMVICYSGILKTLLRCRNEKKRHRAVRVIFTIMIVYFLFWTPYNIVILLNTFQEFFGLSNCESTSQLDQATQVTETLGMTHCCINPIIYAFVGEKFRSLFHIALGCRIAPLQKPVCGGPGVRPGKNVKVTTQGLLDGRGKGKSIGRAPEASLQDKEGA

CX3CR1 = target: T8, CX3CR1 (Homo sapiens, UniProt P49238); assay: Cellular functional assay CX3CR1; details: reference agonist
T8 sequence (P49238 1-355): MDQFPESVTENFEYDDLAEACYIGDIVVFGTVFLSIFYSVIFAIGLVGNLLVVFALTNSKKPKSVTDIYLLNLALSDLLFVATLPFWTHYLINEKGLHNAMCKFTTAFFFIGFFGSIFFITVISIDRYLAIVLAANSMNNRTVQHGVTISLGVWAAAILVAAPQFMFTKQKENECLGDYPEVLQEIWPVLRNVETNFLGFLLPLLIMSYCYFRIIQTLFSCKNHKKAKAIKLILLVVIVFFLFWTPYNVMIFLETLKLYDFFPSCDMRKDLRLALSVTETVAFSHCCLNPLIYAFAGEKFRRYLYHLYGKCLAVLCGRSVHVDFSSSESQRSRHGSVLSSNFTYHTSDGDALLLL

[1] = standard LTC4 50 nM set to 100% (¶ compounds)
[2] = standard LTD4 50 nM set to 100% († compounds)

## COc1ccccc1-c1nnc(SCC(=O)Nc2ncc3c(n2)CCCC3=O)[nH]1 [Compound 15]
Human GPR17
  EC50: 2.9 ± 0.1 nM
Human GPR17; [1]
  % Emax (ratio vs Emax of the standard): 97.23%
Human GPR17; mean ± SEM
  Emax (% vs basal): 137.1 ± 1.3%

## dATPS [reference compound]
P2Y
  IC50: 51 nM
  Ki: 25 nM

## COc1ccc(-c2nnc(SCC(=O)Nc3ncc(Cc4ccc(Cl)cc4)s3)n2-c2ccccc2)cc1OC [Compound 14]
Human GPR17
  EC50: 2.7 ± 0.4 nM
Human GPR17; [1]
  % Emax (ratio vs Emax of the standard): 98.8%
Human GPR17; mean ± SEM
  Emax (% vs basal): 139.3 ± 2.5%

## IL-8: chemokine, reference compound for CXCR2 binding
CXCR2
  IC50: 0.26 nM
  Ki: 0.12 nM

## CCc1ccccc1-n1c(SCC(=O)Nc2ccccc2Cl)nnc1-c1ccccc1O [Compound 6]
Human GPR17
  EC50: 0.52 ± 0.09 nM
Human GPR17; [2]
  % Emax (ratio vs Emax of the standard): 93.5 ^* %
Human GPR17; mean ± SEM
  Emax (% vs basal): 135.0 ± 10.2%

## CCOc1ccc(-n2c(SCC(=O)Nc3ccc(Cl)c(C(F)(F)F)c3)nnc2-c2cccc(C)c2)cc1 [Compound 12]
Human GPR17
  EC50: 7.11 ± 1.96 nM
Human GPR17; [1]
  % Emax (ratio vs Emax of the standard): 90.6 ^* %
Human GPR17; mean ± SEM
  Emax (% vs basal): 127.7 ± 4.1%

## CCCCC/C=C\C\C=C/C=C/C=C/[C@@H](SC[C@H](N)C(=O)NCC(=O)O)[C@@H](O)CCCC(=O)O [LTD4, reference compound]
Human GPR17; reference agonist at 50 nM
  Emax (% vs basal): 144.4 ± 7.1%

## Cc1cccc(-c2n[nH]c(SCC(=O)Nc3cccc4ccccc34)n2)c1 [Compound 7]
Human GPR17
  EC50: 0.48 ± 0.09 nM
Human GPR17; [2]
  % Emax (ratio vs Emax of the standard): 104.8%
Human GPR17; mean ± SEM
  Emax (% vs basal): 151.3 ± 6.7%

## Cc1nc2ccc(NC(=O)CSc3nnc(-c4ccccc4)[nH]3)cc2[nH]1 [Compound 8]
Human GPR17
  EC50: 0.24 ± 0.02 nM
Human GPR17; [2]
  % Emax (ratio vs Emax of the standard): 100.3%
Human GPR17; mean ± SEM
  Emax (% vs basal): 144.8 ± 6.4%

## COc1ccccc1-c1nnc(SCC(=O)Nc2ncc3c(n2)CC(C)(C)CC3=O)[nH]1 [Compound 16]
Human GPR17
  EC50: 3.45 ± 0.5 nM
Human GPR17; [1]
  % Emax (ratio vs Emax of the standard): 99.0%
Human GPR17; mean ± SEM
  Emax (% vs basal): 139.6 ± 1.5%

## COc1ccccc1-c1nnc(SCC(=O)Nc2nccs2)[nH]1 [Compound 17]
Human GPR17
  EC50: 8.48 ± 0.9 nM
Human GPR17; [1]
  % Emax (ratio vs Emax of the standard): 96.6%
Human GPR17; mean ± SEM
  Emax (% vs basal): 136.2 ± 0.5%

## Cc1cccc(-c2n[nH]c(SCC(=O)Nc3ccccc3)n2)c1 [Compound 10]
Human GPR17
  EC50: 0.24 ± 0.06 nM
Human GPR17; [2]
  % Emax (ratio vs Emax of the standard): 98.3%
Human GPR17; mean ± SEM
  Emax (% vs basal): 142.0 ± 5.8%

## CCOc1ccc(-n2c(SCC(=O)Nc3ccc4c(c3)OCCO4)nnc2-c2ccccc2Cl)cc1 [Compound 13]
Human GPR17
  EC50: 3.29 ± 0.28 nM
Human GPR17; [1]
  % Emax (ratio vs Emax of the standard): 100.2%
Human GPR17; mean ± SEM
  Emax (% vs basal): 141.3 ± 7.6%

## COc1ccc(-n2c(SCC(=O)Nc3cc(C(C)(C)C)no3)nnc2-c2ccccc2OC)cc1 [Compound 11]
Human GPR17
  EC50: 22.5 ± 4.3 nM
Human GPR17; [1]
  % Emax (ratio vs Emax of the standard): 95.3%
Human GPR17; mean ± SEM
  Emax (% vs basal): 134.3 ± 8.8%

## N[C@@H](Cn1oc(=O)[nH]c1=O)C(=O)O [L-Quisqualate, reference compound]
mGluR5
  IC50: 67 nM
  Ki: 14 nM

## C[N+]1(C)CCC(OC(=O)C(c2ccccc2)c2ccccc2)CC1 [Compound 4-DAMP, 4-DAMP, reference compound]
M5
  IC50: 0.73 nM
  Ki: 0.37 nM

## CC[N+]1(C/C2=C/CCCCCC2)CCC(NC(=O)C2c3cc(Cl)ccc3Oc3ccc(Cl)cc32)CC1 (stereo not shown) [Compound J113863, J113863, reference compound]
CCR3; reference antagonist
  IC50: 8.9 nM

## rhIL-8: recombinant chemokine, reference agonist for CXCR1
CXCR1
  EC50: 4.7 nM

## MCP-1: chemokine, reference compound for CCR2 binding
CCR2
  IC50: 0.072 nM
  Ki: 0.029 nM

## O=C(CSc1nnc2n(Cc3ccc(Cl)cc3)c3ccccc3n12)N1CCc2ccccc2C1 [Compound 19]
Human GPR17
  EC50: 9.5 ± 1.47 nM
Human GPR17; [1]
  % Emax (ratio vs Emax of the standard): 108.5 ^* %
Human GPR17; mean ± SEM
  Emax (% vs basal): 153.7 ± 1.1%

## Cn1c(SCC(=O)Nc2ccc(Cl)cc2)nnc1-c1ccc(NC(=O)c2ccccc2)cc1 [Compound 4]
Human GPR17
  EC50: 0.43 ± 0.08 nM
Human GPR17; [2]
  % Emax (ratio vs Emax of the standard): 110.8%
Human GPR17; mean ± SEM
  Emax (% vs basal): 160.0 ± 10.6%

## CCCCC/C=C\C\C=C/C=C/C=C/[C@@H](SC[C@H](NC(=O)CC[C@H](N)C(=O)O)C(=O)NCC(=O)O)[C@@H](O)CCCC(=O)O [LTC4, reference compound]
Human GPR17; reference agonist at 50 nM
  Emax (% vs basal): 141.0 ± 3.9%

B1: eotaxin 2: chemokine, reference agonist for CCR3 (protein, UniProt O00175 27-119, looked up)
C-C motif chemokine 24: VVIPSPCCMFFVSKRIPENRVVSYQLSSRSTCLKAGVIFTTKKGQQFCGDPKQEWVQRYMKNLDAKQKKASPRARAVAVKGPVQRYPGNQTTC
CCR3; reference agonist
  EC50: 6.4 nM

B2: CX3CL1: chemokine, reference agonist for CX3CR1 (protein, UniProt P78423 25-397, looked up)
Fractalkine: QHHGVTKCNITCSKMTSKIPVALLIHYQQNQASCGKRAIILETRQHRLFCADPKEQWVKDAMQHLDRQAAALTRNGGTFEKQIGEVKPRTTPAAGGMDESVVLEPEATGESSSLEPTPSSQEAQRALGTSPELPTGVTGSSGTRLPPTPKAQDGGPVGTELFRVPPVSTAATWQSSAPHQPGPSLWAEAKTSEAPSTQDPSTQASTASSPAPEENAPSEGQRVWGQGQSPRPENSLEREEMGPVPAHTDAFQDWGPGSMAHVSVVPVSSEGTPSREPVASGSWTPKAEEPIHATMDPQRLGVLITPVPDAQAATRRQAVGLLAFLGLLFCLGVAMFTYQSLQGCPRKMAGEMAEGLRYIPRSCGSNSYVLVPV
CX3CR1
  EC50: 2.2 nM
